Key:
AVEFA = test: greenhouse post-emergence herbicidal test; format: in vivo, wild oats
Source text: (§1) The culture containers used were plastic flowerpots containing loamy sand with approximately 3.0% of humus as substrate. The seeds of the test plants were sown separately for each species. For the post-emergence treatment, the test plants were first grown to a plant height of from 3 to 15 cm, depending on the plant habit, and only then treated with the active ingredients which had been suspended or emulsified in water. To this end, the test plants were either sown directly and grown in the same containers, or they were first grown separately as seedlings and transplanted into the test containers a few days prior to treatment. […] Depending on the species, the plants were kept at from 10 to 25° C., or 20-35° C., respectively. The test period extended over 2 to 4 weeks. During this time, the plants were tended, and their response to the individual treatments was evaluated. Evaluation was carried out using a scale of from 0 to 100. 100 means no emergence of the plants, or complete destruction of at least the aerial parts, and 0 means no damage, or normal course of growth. [table]

CHEAL = test: greenhouse post-emergence herbicidal test; format: in vivo, lambsquarters (goosefoot)
Source text: as §1

POLPE = test: greenhouse post-emergence herbicidal test; format: in vivo, ladysthumb
Source text: as §1

SOLNI = test: greenhouse post-emergence herbicidal test; format: in vivo, black nightshade
Source text: as §1

GALAP = test: greenhouse post-emergence herbicidal test; format: in vivo, catchweed bedstraw; details: application rates 0.5 and 0.25 kg/ha (a.s.)
Source text: The culture containers used were plastic flowerpots containing loamy sand with approximately 3.0% of humus as substrate. The seeds of the test plants were sown separately for each species. For the post-emergence treatment, the test plants were first grown to a plant height of from 3 to 15 cm, depending on the plant habit, and only then treated with the active ingredients which had been suspended or emulsified in water. To this end, the test plants were either sown directly and grown in the same containers, or they were first grown separately as seedlings and transplanted into the test containers a few days prior to treatment. The rate of application for the post-emergence treatment was 0.5 or 0.25 kg of a.s. (active. substance)/ha. Depending on the species, the plants were kept at from 10 to 25° C., or 20-35° C., respectively. The test period extended over 2 to 4 weeks. During this time, the plants were tended, and their response to the individual treatments was evaluated. Evaluation was carried out using a scale of from 0 to 100. 100 means no emergence of the plants, or complete destruction of at least the aerial parts, and 0 means no damage, or normal course of growth. [table]

LAMAM = test: greenhouse post-emergence herbicidal test; format: in vivo, henbit
Source text: as §1

STEME = test: greenhouse post-emergence herbicidal test; format: in vivo, common chickweed
Source text: as §1

THLAR = test: greenhouse post-emergence herbicidal test; format: in vivo, fanweed
Source text: as §1

PAPRH = test: greenhouse post-emergence herbicidal test; format: in vivo, corn poppy
Source text: as §1

EPHHL = test: greenhouse post-emergence herbicidal test; format: in vivo, spurge
Source text: as §1

MYOAR = test: greenhouse post-emergence herbicidal test; format: in vivo, forget-me-not
Source text: as §1

wheat = test: greenhouse post-emergence test, crop selectivity; format: in vivo, spring wheat; details: application rates 0.125 and 0.0625 kg/ha
Source text: as §1

GASPA = test: greenhouse post-emergence herbicidal test; format: in vivo, smallflower; details: application rates 0.125 and 0.0625 kg/ha
Source text: as §1

AMARE = test: greenhouse post-emergence herbicidal test; format: in vivo, redroot pigweed
Source text: as §1

ECHCG = test: greenhouse post-emergence herbicidal test; format: in vivo, barnyard grass
Source text: as §1

[1] = application rates 0.5 and 0.25 kg/ha (a.s.)
[2] = application rates 0.25 and 0.125 kg/ha
[3] = application rates 0.125 and 0.0625 kg/ha
[4] = application rates 0.5 and 0.25 kg/ha

Row | SMILES | herbicidal action against CHEAL (CHEAL; [2]) | herbicidal action against LAMAM (LAMAM; [2]) | herbicidal action against THLAR (THLAR; [2]) | herbicidal action against PAPRH (PAPRH; [2]) | herbicidal action against POLPE (POLPE; [2]) | herbicidal action against AMARE (AMARE; [2]) | other results
1 | Cc1c(C(=O)c2cnn(C)c2O)ccc2scnc12 [Example 1, 4-[4′-Methylbenzothiazol-5′-ylcarbonyl]-5-hydroxy-1-methylpyrazole] | – | – | – | – | – | – | herbicidal action against AVEFA (AVEFA; [1]): very good herbicidal action; herbicidal action against CHEAL (CHEAL; [1]): very good herbicidal action; herbicidal action against POLPE (POLPE; [1]): very good herbicidal action; herbicidal action against SOLNI (SOLNI; [1]): very good herbicidal action; herbicidal action against GALAP (GALAP): very good herbicidal action; melting point: 149 to 150 °C
2 | Cc1c(C(=O)c2cnn(C(C)C)c2O)ccc2scnc12 [Example 12, 4-(4′-methylbenzothiazol-5′-ylcarbonyl)-5-hydroxy-1-isopropylpyrazole] | very good herbicidal action | very good herbicidal action | very good herbicidal action | very good herbicidal action | – | – | herbicidal action against STEME (STEME; [2]): very good herbicidal action
3 | Cc1c(C(=O)c2cnn(C)c2OCc2ccccc2)ccc2scnc12 [Example 13, 4-(4′-methylbenzothiazol-5′-ylcarbonyl)-5-benzyloxy-1-methylpyrazole] | – | – | – | – | – | – | herbicidal action against CHEAL (CHEAL; [3]): very good herbicidal action; herbicidal action against SOLNI (SOLNI; [3]): very good herbicidal action; herbicidal action against EPHHL (EPHHL; [3]): very good herbicidal action; herbicidal action against MYOAR (MYOAR; [3]): very good herbicidal action; herbicidal action against PAPRH (PAPRH; [3]): very good herbicidal action; selectivity in wheat (wheat): selectivity in wheat
4 | Cc1nc2c(C)c(C(=O)c3cnn(C)c3O)ccc2s1 [Example 14, 4-(2′,4′-dimethylbenzothiazol-5′-ylcarbonyl)-5-hydroxy-1-methylpyrazole] | – | – | – | – | – | – | herbicidal action against GASPA (GASPA): very good herbicidal action; herbicidal action against LAMAM (LAMAM; [3]): very good herbicidal action; herbicidal action against STEME (STEME; [3]): very good herbicidal action; herbicidal action against THLAR (THLAR; [3]): very good herbicidal action
5 | Cc1c(C(=O)c2cnn(C)c2OC(=O)c2ccccc2)ccc2scnc12 [Example 15, 4-(4′-methylbenzothiazol-5′-ylcarbonyl)-5-benzoyloxy-1-methylpyrazole] | very good herbicidal action | – | – | – | very good herbicidal action | very good herbicidal action | herbicidal action against AVEFA (AVEFA; [2]): very good herbicidal action; herbicidal action against ECHCG (ECHCG; [2]): very good herbicidal action
6 | Cc1c(C(=O)c2cnn(C)c2OC(=O)c2cccc(F)c2)ccc2scnc12 [Example 16, 4-(4′-methylbenzothiazol-5′-ylcarbonyl)-5-(3″-fluorobenzoyl)oxy-1-methylpyrazole] | – | – | – | – | – | – | herbicidal action against CHEAL (CHEAL; [1]): very good herbicidal action; herbicidal action against POLPE (POLPE; [1]): very good herbicidal action; herbicidal action against GALAP (GALAP): very good herbicidal action; herbicidal action against AMARE (AMARE; [4]): very good herbicidal action; herbicidal action against ECHCG (ECHCG; [4]): very good herbicidal action
7 | Cc1c(C(=O)c2cnn(C)c2OC(=O)C2CC2)ccc2scnc12 [Example 18, 4-(4′-methylbenzothiazol-5′-ylcarbonyl)-5-cyclopropylcarbonyloxy-1-methylpyrazole] | very good herbicidal action | – | – | – | very good herbicidal action | very good herbicidal action | herbicidal action against AVEFA (AVEFA; [2]): very good herbicidal action; herbicidal action against ECHCG (ECHCG; [2]): very good herbicidal action
8 | CCc1nc2c(C)c(C(=O)c3cnn(C)c3O)ccc2o1 [Example 30, 4-(2′-ethyl-4′-methylbenzoxazol-5′-ylcarbonyl)-5-hydroxy-1-methylpyrazole] | very good herbicidal action | very good herbicidal action | very good herbicidal action | very good herbicidal action | very good herbicidal action | – | –
9 | CCc1nc2c(C)c(C(=O)c3cnn(C(C)C)c3O)ccc2o1 [Example 31, 4-(2′-ethyl-4′-methylbenzoxazol-5′-ylcarbonyl)-5-hydroxy-1-isopropylpyrazole] | very good herbicidal action | very good herbicidal action | very good herbicidal action | very good herbicidal action | very good herbicidal action | very good herbicidal action | –
10 | Cc1nc2c(C)c(C(=O)c3cnn(C(C)C)c3O)ccc2s1 [Example 33, 4-(2′,4′-dimethylbenzothiazol-5′-ylcarbonyl)-5-hydroxy-1-isopropylpyrazole] | very good herbicidal action | very good herbicidal action | very good herbicidal action | very good herbicidal action | – | very good herbicidal action | herbicidal action against MYOAR (MYOAR; [2]): very good herbicidal action
11 | COCc1nc2c(C)c(C(=O)c3cnn(C)c3O)ccc2s1 [Example 34, 4-(2′-methoxymethyl-4′-methylbenzothiazol-5′-ylcarbonyl)-5-hydroxy-1-methylpyrazole] | very good herbicidal action | very good herbicidal action | very good herbicidal action | very good herbicidal action | – | – | herbicidal action against STEME (STEME; [2]): very good herbicidal action
12 | COCc1nc2c(C)c(C(=O)c3cnn(C(C)C)c3O)ccc2s1 [Example 36, 4-(2′-methoxymethyl-4′-methylbenzothiazol-5′-ylcarbonyl)-5-hydroxy-1-isopropylpyrazole] | very good herbicidal action | – | – | very good herbicidal action | – | – | herbicidal action against SOLNI (SOLNI; [2]): very good herbicidal action; herbicidal action against STEME (STEME; [2]): very good herbicidal action; herbicidal action against EPHHL (EPHHL; [2]): very good herbicidal action; herbicidal action against MYOAR (MYOAR; [2]): very good herbicidal action

Reference: patent US6541423B1, “4-(3′,4′-heterocyclyl benzoyl) pyrazoles as herbicidal agents” (BASF Aktiengesellschaft, priority 1999, dated 2003)
